Blank lines part the entries; values can stand above or below the molecule they belong to.
Experiments:
[1] = tested on: phosphorylation of a threonine residue at position 212 of tau protein by DYRK1A protein; assay: Inhibitory activity on phosphorylation of tau protein in cultured cells expressing tau and DYRK1A (western blot, Thr212); type: cell-based; conditions: phospho-Thr212 tau
Method: The inhibitory activity of the compounds synthesized in the production examples on the phosphorylation of tau protein was evaluated by an evaluation system using the following cultured cells.
The cultured cells that can induce the expressions of tau protein and DYRK1A protein individually and that allow the phosphorylation of the tau protein to be evaluated depending on the activity of the DYRK1A protein were used in the evaluation system. […] Therefore, the inhibitory activity on the phosphorylation of the tau protein can be evaluated by inducing the expressions of both the tau protein and the DYRK1A protein, and evaluating the degree of phosphorylation of a threonine residue at position 212 of the tau protein.
The compounds 1, 4, and 6 to 9 (10 μM) were added to the evaluation system, and the phosphorylation of the tau protein was detected with the antibody that specifically recognizes the phosphorylation of a threonine residue at position 212 of the tau protein. […] The “control” represents the result of adding no compound.
The inhibitory activity of the compounds 1 and 2 on the phosphorylation of tau protein was evaluated in the same manner as the Experimental example 1.
(§1) The “control” represents the result of adding no compound.
The inhibitory activity of the compounds 3, 6, and 9 to 15 on the phosphorylation of tau protein was evaluated in the same manner as the experimental example 1. FIGS. 7 to 9 show an example of the results.

Oral absorbability = type: in vivo, B6J mouse; conditions: mouse, oral administration, 100 mg/kg, 5% gum arabic, plasma
Method: The oral absorbability of the compound 1 was evaluated under the following conditions.

DYRK1A = DYRK1A (Homo sapiens, UniProt Q13627); assay: DYRK1A inhibitory capacity in vitro; type: biochemical
Description: as §1

[2] = tested on: retinoblastoma cell lines WERI; assay: Inhibition of growth of cancer cells (Alamar Blue); type: cell-based
Method: (§2) Specifically, the cells were seeded on a 24 Well plate, and the compounds at a predetermined concentration were added. After cultivation for 5 days, the number of cells was calculated by detecting the fluorescence intensity with Alamar Blue. The culture medium containing the compounds was replaced every day. FIGS. 10 to 12 show an example of the results.

[3] = Intracerebral transferability after caudal vein administration; type: in vivo; conditions: male, Wistar, intravenous, rat, 2 mg/head
Method: The intracerebral transferability of the compound 1 was evaluated under the following conditions. […] In other words, the intracerebral transferability of the compound 1 was confirmed.
Experimental animal: 8-week-old male Wistar rat (about 300 g), caudal vein administration
Administered vehicle: 20% PPG/8% tween 80/saline (2 mL/head)
Compound dosage: 2 mg/head
Sampling time: 3 minutes after administration for plasma; 7 minutes after administration for cerebrospinal fluid

[4] = Oral absorbability and intracerebral transferability (plasma and brain tissue concentration); type: in vivo; conditions: ICR mouse, 100 mg/kg; for Kp / half-life: male; for Kp: brain tissue / plasma, read-out: Brain tissue/blood ratio (B/P: mL/g); for half-life: plasma and brain tissue, read-out: Half-life in blood and in brain tissue
Method: The oral absorbability and the intracerebral transferability of the compounds 1 and 2 were evaluated under the following conditions. FIG. 6 and Table 1 show an example of the results.
Experimental animal: 7-week-old male ICR mouse, oral administration
Administered vehicle: 0.5% carboxymethylcellulose
Compound dosage: 100 mg/kg
FIG. 6 and Table 1 show an example of the results of measuring a plasma concentration and a brain tissue concentration after oral administration of the compounds 1 and 2. As shown in FIG. 6 and Table 1, the results confirmed that the compounds 1 and 2 had both oral absorbability and intracerebral transferability.

[5] = tested on: phosphorylation of tau protein in the brain; assay: Inhibition of stress-induced phosphorylation of tau protein in the brain; type: in vivo; conditions: mice, 100 mg/kg before stress (ice-cold water 5 minutes), brain tissue western blot
Method: The inhibitory activity of the compounds 1 and 2 on the phosphorylation of tau protein in the brain was evaluated. In the evaluation, a system was used which induced the phosphorylation of tau protein by imposing stress on mice (i.e., bathing the mice in ice-cold water for 5 minutes).

[6] = tested on: MDA-MB-453 human breast cancer cells (triple-negative); assay: Growth inhibition, adherent and non-adherent culture (Alamar Blue); type: cell-based; conditions: MDA-MB-453, cells cultured to prevent adhering
Method: as §2
(§3) In addition, the effect was also confirmed when the target cells were cultured to prevent them from adhering to each other.

[7] = tested on: MDA-MB-468 human breast cancer cells (triple-negative); assay: as above; type: cell-based; conditions: MDA-MB-468, cells cultured to prevent adhering
Method: as §2, §3

[8] = tested on: human lung adenocarcinoma-derived cell lines (PC-9); assay: Growth inhibition, microscopic observation; type: cell-based; conditions: PC-9 lines, microscope
PC-9-GR-high lines = assay: Growth inhibition, microscopic observation; type: cell-based, human; conditions: microscope
[9] = tested on: PC-9-GR-step lines (gefitinib-resistant sub-lines of PC-9); assay: Growth inhibition, microscopic observation; type: cell-based, human; conditions: microscope
[10] = tested on: memory and learning disabilities induced by amyloid-β peptide (25-35); assay: Remedial action on memory and learning disabilities induced by amyloid-β peptide (water maze, probe test); type: in vivo, Swiss mice; conditions: mice, amyloid-β icv, 100 mg/kg twice a day
Method: The remedial action of the compound 2 on memory and learning disabilities was evaluated. In the evaluation, amyloid-β peptide was administered into the cerebral ventricles of mice, and an evaluation system that induces memory and learning disabilities was used (Maurice et al., 1996). The tests were performed using 6-week-old male Swiss mice, which were divided into groups of 12 (n=12). Amyloid-β peptide (25-35, sequence: Gly-Ser-Asn-Lys-Gly-Ala-Ile-Ile-Gly-Leu-Met) (SEQ ID NO: 1) or scrambled amyloid-β (25-35, sequence: Ala-Lys-Ile-Gly-Asn-Ser-Ile-Gly-Leu-Met-Gly) (SEQ ID NO: 2) which was used as control peptide, was dissolved in distilled water, and each of the peptide solutions was incubated at 37° C. for 4 days.
The compound 2 for medication was dissolved in DMSO, and then diluted with 0.5% methylcellulose, thereby preparing a 10 mg/mL solution. […]
In order to evaluate a reference memory, water maze was performed three times a day using a circular pool (140 cm in diameter and 40 cm in height) and a platform (10 cm in diameter) between the 8th day and the 12th day of the tests. […] During the recording, the total time the mice spent in one-fourth of the area of the circle, including the place where the platform had been located until the previous day, was recorded. […]

[11] = compounds of 10 μM, cells expressing tau and DYRK1A

Structure (SMILES): N=C1NC(=O)/C(=C/c2ccc3oc4ccccc4c3c2)S1 [Compound 9, (Z)-5-[(dibenzo[b,d]furan-2-yl)methylene]-2-iminothiazolidin-4-one]
inhibitory effect on the phosphorylation of the tau protein [1, 11]: inhibitory effect

Structure (SMILES): N=C1NC(=O)/C(=C/c2ccc3c(c2)CCO3)S1 [Compound 7, (Z)-5-[(2,3-dihydrobenzofuran-5-yl)methylene]-2-iminothiazolidin-4-one]
inhibitory effect on the phosphorylation of the tau protein [1, 11]: significant inhibitory effect

oral absorbability (Oral absorbability): confirmed
IC50 (DYRK1A): 49 nM
concentration at 7 min ([3]; cerebrospinal fluid, 7 minutes after administration): 1.88 µM
concentration at 3 min ([3]; plasma, 3 minutes after administration): 13.5 µM
Maximum blood concentration [4]: 1900 ng/mL
Maximum brain tissue concentration [4]: 1700 ng/g
Time to maximum concentration in blood and in brain tissue [4]: within 15 minutes
Kp [4]: ~0.9
half-life [4]: ≤ 1 h
Structure (SMILES): CCN1/C(=C/C(C)=O)Sc2ccc3c(c21)CCO3 [Compound 1, (Z)-1-[1-ethyl-7,8-dihydrobenzofuro[4,5-d]thiazol-2(1H)-ylidene]propan-2-one]
inhibitory effect on the phosphorylation of the tau protein ([1]; compounds at 0.3 to 10 μM): significant inhibitory effect
inhibitory effect on the phosphorylation of the tau protein [1, 11]: significant inhibitory effect
inhibitory effect on the growth of the cancer cells [2]: inhibitory effect
inhibition of stress-induced phosphorylation of the tau protein in brain [5]: could inhibit the stress-induced phosphorylation of the tau protein

Structure (SMILES): O=C1NC(=S)S/C1=C\c1ccc2oc3ccccc3c2c1 [Compound 6, (Z)-5-[(dibenzo[b,d]furan-2-yl)methylene]-2-thioxothiazolidin-4-one]
inhibitory effect on the phosphorylation of the tau protein [1, 11]: significant inhibitory effect

Structure (SMILES): CCN1/C(=C/C(C)=O)Sc2ccc3oc4cc(C)ccc4c3c21 [Compound 11, (Z)-1-(1-ethyl-8-methylbenzo[2,3]benzofuro[4,5-d]thiazol-2(1H)-ylidene)propan-2-one]
inhibitory effect on the phosphorylation of the tau protein [1, 11]: inhibitory effect

Structure (SMILES): CCN1/C(=C/C(C)=O)Sc2ccc3oc4ccc(Cl)cc4c3c21 [Compound 14, (Z)-1-(9-chloro-1-ethylbenzo[2,3]benzofuro[4,5-d]thiazol-2(1H)-ylidene)propan-2-one]
inhibitory effect on the phosphorylation of the tau protein [1, 11]: inhibitory effect

Structure (SMILES): O=C1NC(=S)N/C1=C\c1ccc2oc3ccccc3c2c1 [Compound 15, (Z)-5-[(dibenzo[b,d]furan-2-yl)methylene]-2-thioxoimidazolidin-4-one]
inhibitory effect on the phosphorylation of the tau protein [1, 11]: inhibitory effect
inhibitory effect on the anchorage-independent growth [6]: inhibitory effect
inhibitory effect on the anchorage-independent growth [7]: inhibitory effect

Structure (SMILES): CCN1/C(=C/C(C)=O)Sc2ccc3oc4cc(C)c(C)cc4c3c21 [Compound 10, (Z)-1-(8,9-dimethyl-1-ethylbenzo[2,3]benzofuro[4,5-d]thiazol-2(1H)-ylidene)propan-2-one]
inhibitory effect on the phosphorylation of the tau protein [1, 11]: inhibitory effect

Structure (SMILES): CCN1/C(=C/C(C)=O)Sc2ccc3oc4ccc(C)cc4c3c21 [Compound 12, (Z)-1-(1-ethyl-9-methylbenzo[2,3]benzofuro[4,5-d]thiazol-2(1H)-ylidene)propan-2-one]
inhibitory effect on the phosphorylation of the tau protein [1, 11]: inhibitory effect
apoptosis-inducing activity on the cancer cells [8]: excellent apoptosis-inducing activity
apoptosis-inducing activity on the cancer cells (PC-9-GR-high lines): excellent apoptosis-inducing activity
apoptosis-inducing activity on the cancer cells [9]: excellent apoptosis-inducing activity

Structure (SMILES): CCN1/C(=C/C(C)=O)Sc2ccc3oc4cc(Cl)ccc4c3c21 [Compound 13, (Z)-1-(8-chloro-1-ethylbenzo[2,3]benzofuro[4,5-d]thiazol-2(1H)-ylidene)propan-2-one]
inhibitory effect on the phosphorylation of the tau protein [1, 11]: inhibitory effect

Structure (SMILES): O=C1NC(=S)S/C1=C\c1ccc2c(c1)CCO2 [Compound 4, (Z)-5-[(2,3-dihydrobenzofuran-5-yl)methylene]-2-thioxothiazolidin-4-one]
inhibitory effect on the phosphorylation of the tau protein [1, 11]: inhibitory effect

Structure (SMILES): N=C1NC(=O)/C(=C/c2ccc3occc3c2)S1 [Compound 8, (Z)-5-[(benzofuran-5-yl)methylene]-2-iminothiazolidin-4-one]
inhibitory effect on the phosphorylation of the tau protein [1, 11]: significant inhibitory effect

IC50 (DYRK1A): 40 nM
Maximum blood concentration [4]: 8400 ng/mL
Maximum brain tissue concentration [4]: 8500 ng/g
Time to maximum concentration in blood and in brain tissue [4]: 2 h
Kp [4]: ~1
half-life [4]: ≥ 4 h
Structure (SMILES): CCN1/C(=C/C(C)=O)Sc2ccc3occc3c21 [Compound 2, (Z)-1-[1-ethyl-7,8-benzofuro[4,5-d]thiazol-2(1H)-ylidene]propan-2-one]
inhibitory effect on the phosphorylation of the tau protein ([1]; compounds at 0.3 to 10 μM): significant inhibitory effect
inhibition of stress-induced phosphorylation of the tau protein in brain [5]: could inhibit the stress-induced phosphorylation of the tau protein
reference memory in water maze (time to reach the platform) ([10]; 8th to 12th day): improved the reduced memory and learning abilities
probe test (time spent around the platform) ([10]; 13th day): improved the reduced memory and learning abilities

From patent publication US10017524B2, “Compound and pharmaceutical composition for neuropsychological disorder or malignant tumor” (KYOTO UNIVERSITY, priority 2012, dated 2018)
